Assay [1] concerns the target T1, human recombinant HDAC1 (Homo sapiens, UniProt Q13547).
T1 construct: purchased Enzo Life Science, Inc. BML-SE456
Put plainly: HDAC1 enzyme activity inhibition (HDAC Fluorimetric Drug Discovery Kit). Format: biochemical. Particulars: human recombinant HDAC1; IC50 calculated with GraphPad Prism; read-out: HDAC1. The essentials: (§1)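 Fluorimetric deacetylase read-out: after 30 min with Developer II following a 60 min, 30° C reaction of recombinant enzyme ([…]) with 10 μM substrate, across five-fold serial compound dilutions.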

Assay [2] has as its target T2, human recombinant HDAC6 (Homo sapiens, UniProt Q9UBN7).
T2 construct: purchased Calbiochem Inc. 382180
T2 sequence (Q9UBN7 1-1215): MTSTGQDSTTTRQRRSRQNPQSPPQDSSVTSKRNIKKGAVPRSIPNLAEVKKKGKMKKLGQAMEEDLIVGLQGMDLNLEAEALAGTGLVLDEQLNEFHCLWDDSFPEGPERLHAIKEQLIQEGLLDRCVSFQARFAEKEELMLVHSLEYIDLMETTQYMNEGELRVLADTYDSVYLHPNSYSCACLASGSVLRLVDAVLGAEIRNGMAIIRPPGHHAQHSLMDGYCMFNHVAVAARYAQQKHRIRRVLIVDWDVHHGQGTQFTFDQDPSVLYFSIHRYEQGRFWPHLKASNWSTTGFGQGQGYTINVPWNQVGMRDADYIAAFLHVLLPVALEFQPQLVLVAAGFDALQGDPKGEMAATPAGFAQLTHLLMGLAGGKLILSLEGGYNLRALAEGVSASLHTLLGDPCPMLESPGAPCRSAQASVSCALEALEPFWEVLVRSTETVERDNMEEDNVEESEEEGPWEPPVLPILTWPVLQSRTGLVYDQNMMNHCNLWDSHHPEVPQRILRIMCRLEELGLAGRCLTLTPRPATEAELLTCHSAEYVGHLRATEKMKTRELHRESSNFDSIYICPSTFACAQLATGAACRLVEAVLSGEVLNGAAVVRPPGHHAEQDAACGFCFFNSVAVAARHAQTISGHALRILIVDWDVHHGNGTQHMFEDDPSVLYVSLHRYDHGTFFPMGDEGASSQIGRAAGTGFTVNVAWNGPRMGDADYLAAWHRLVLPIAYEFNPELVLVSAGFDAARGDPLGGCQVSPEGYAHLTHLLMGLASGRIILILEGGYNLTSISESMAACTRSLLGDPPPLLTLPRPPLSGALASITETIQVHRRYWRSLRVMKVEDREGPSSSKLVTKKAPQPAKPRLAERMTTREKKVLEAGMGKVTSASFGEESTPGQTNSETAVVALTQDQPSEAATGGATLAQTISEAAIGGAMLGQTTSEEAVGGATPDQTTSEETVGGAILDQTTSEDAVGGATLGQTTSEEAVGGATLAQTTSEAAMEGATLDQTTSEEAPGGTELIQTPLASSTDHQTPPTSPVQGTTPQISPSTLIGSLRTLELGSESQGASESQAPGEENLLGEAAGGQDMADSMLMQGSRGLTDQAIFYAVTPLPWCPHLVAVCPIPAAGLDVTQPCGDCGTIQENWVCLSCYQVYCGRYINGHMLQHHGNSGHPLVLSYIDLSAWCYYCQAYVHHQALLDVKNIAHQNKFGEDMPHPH
Briefly: HDAC6 enzyme activity inhibition (HDAC Fluorimetric Drug Discovery Kit). Format: biochemical. Conditions: for HDAC6 selectivity (fold): HDAC1 IC50 / HDAC6 IC50; for IC50: human recombinant HDAC6, IC50 calculated with GraphPad Prism. In outline: as §1

T1 sequence (Q13547 whole entry): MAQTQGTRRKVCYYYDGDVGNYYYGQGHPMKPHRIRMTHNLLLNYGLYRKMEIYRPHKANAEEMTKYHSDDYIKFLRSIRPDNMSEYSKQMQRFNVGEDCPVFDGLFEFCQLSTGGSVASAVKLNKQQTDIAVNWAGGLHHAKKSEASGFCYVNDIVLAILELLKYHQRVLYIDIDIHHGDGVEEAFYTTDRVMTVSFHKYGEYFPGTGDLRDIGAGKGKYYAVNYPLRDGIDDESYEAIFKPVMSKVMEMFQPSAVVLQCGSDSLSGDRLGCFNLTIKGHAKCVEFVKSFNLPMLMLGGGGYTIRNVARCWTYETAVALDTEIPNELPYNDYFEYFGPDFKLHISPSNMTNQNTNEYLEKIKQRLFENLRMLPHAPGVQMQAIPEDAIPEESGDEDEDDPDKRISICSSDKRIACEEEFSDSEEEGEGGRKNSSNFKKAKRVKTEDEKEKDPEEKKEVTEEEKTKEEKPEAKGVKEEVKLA

`CC(C)N1CCC(Nc2ccc(F)c(-c3cn(Cc4ccc(-c5nnc(C(F)F)o5)cc4F)nn3)c2)CC1` [Compound 4436, N-(3-(1-(4-(5-(difluoromethyl)-1,3,4-oxadiazol-2-yl)-2-fluorobenzyl)-1H-1,2,3-triazol-4-yl)-4-fluorophenyl)-1-isopropylpiperidin-4-amine]: in assay [1], the IC50 is more than 50 µM. Besides, in assay [2], the “HDAC6 selectivity (fold)” value is 1369 fold and the IC50 is 36.5 nM.
The corresponding values for `CC(=O)N1CCC(Nc2ccc(F)c(-c3cn(Cc4ccc(-c5nnc(C(F)F)o5)cc4F)nn3)c2)CC1` [Compound 4437, 1-(4-((3-(1-(4-(5-(difluoromethyl)-1,3,4-oxadiazol-2-yl)-2-fluorobenzyl)-1H-1,2,3-triazol-4-yl)-4-fluorophenyl)amino)piperidin-1-yl)ethan-1-one] are more than 50 µM, 600 fold and 83.3 nM.
The matching figures for `CCCN1CCC(Nc2ccc(F)c(-c3cn(Cc4ccc(-c5nnc(C(F)F)o5)cc4F)nn3)c2)CC1` [Compound 4438, N-(3-(1-(4-(5-(difluoromethyl)-1,3,4-oxadiazol-2-yl)-2-fluorobenzyl)-1H-1,2,3-triazol-4-yl)-4-fluorophenyl)-1-propylpiperidin-4-amine]: more than 50 µM, 934 fold and 53.5 nM.
The matching figures for `C[C@@H]1CN(c2cccc(-c3cn(Cc4ccc(-c5nnc(C(F)F)o5)cc4F)nn3)c2)C[C@H](C)N1` [Compound 4439, 2-(difluoromethyl)-5-(4-((4-(3-((3R,5S)-3,5-dimethylpiperazin-1-yl)phenyl)-1H-1,2,3-triazol-1-yl)methyl)-3-fluorophenyl)-1,3,4-oxadiazole]: more than 50 µM, 1831 fold and 27.3 nM.
Take `C[C@@H]1CN(c2cccc(-c3cn(Cc4ccc(-c5nnc(C(F)F)o5)cc4)nn3)c2)C[C@H](C)N1` [Compound 4440, 2-(difluoromethyl)-5-(4-((4-(3-((3R,5S)-3,5-dimethylpiperazin-1-yl)phenyl)-1H-1,2,3-triazol-1-yl)methyl)phenyl)-1,3,4-oxadiazole]: the IC50 in assay [1] is more than 50 µM. For the same molecule, in assay [2], the “HDAC6 selectivity (fold)” value turned out to be 1655 fold and the IC50 is 30.2 nM.
The matching figures for `C[C@@H]1CN(c2cccc(-c3cn(Cc4ccc(-c5nnc(C(F)F)o5)cc4)nn3)c2)C[C@H](C)N1C` [Compound 4441, 2-(difluoromethyl)-5-(4-((4-(3-((3R,5S)-3,4,5-trimethylpiperazin-1-yl)phenyl)-1H-1,2,3-triazol-1-yl)methyl)phenyl)-1,3,4-oxadiazole]: more than 50 µM, 1315 fold and 38 nM.
`CCN1[C@H](C)CN(c2cccc(-c3cn(Cc4ccc(-c5nnc(C(F)F)o5)cc4)nn3)c2)C[C@@H]1C` [Compound 4442]: in assay [1], the IC50 was more than 50 µM. In assay [2], the “HDAC6 selectivity (fold)” value was 1256 fold and the IC50 is 39.8 nM.
The corresponding values for `C[C@@H]1CN(c2cccc(-c3cn(Cc4ccc(-c5nnc(C(F)F)o5)cc4F)nn3)c2)C[C@H](C)N1C` [Compound 4443, 2-(difluoromethyl)-5-(3-fluoro-4-((4-(3-((3R,5S)-3,4,5-trimethylpiperazin-1-yl)phenyl)-1H-1,2,3-triazol-1-yl)methyl)phenyl)-1,3,4-oxadiazole] are more than 50 µM, 2183 fold and 22.9 nM.
For `CCN1[C@H](C)CN(c2cccc(-c3cn(Cc4ccc(-c5nnc(C(F)F)o5)cc4F)nn3)c2)C[C@@H]1C` [Compound 4444], in assay [1], the IC50 is more than 50 µM. Moreover, in assay [2], the “HDAC6 selectivity (fold)” value worked out at 1872 fold and the IC50 was 26.7 nM.
The corresponding values for `CC(C)N1CCN(C(=O)c2cccc(-c3cn(Cc4ccc(-c5nnc(C(F)F)o5)cn4)nn3)c2)CC1` [Compound 4448, (3-(1-((5-(5-(difluoromethyl)-1,3,4-oxadiazol-2-yl)pyridin-2-yl)methyl)-1H-1,2,3-triazol-4-yl)phenyl)(4-isopropylpiperazin-1-yl)methanone] are more than 50 µM, 2873 fold and 17.4 nM.
The matching figures for `CN(C)CCN(C)C(=O)c1cccc(-c2cn(Cc3ccc(-c4nnc(C(F)F)o4)cn3)nn2)c1` [Compound 4449, 3-(1-((5-(5-(difluoromethyl)-1,3,4-oxadiazol-2-yl)pyridin-2-yl)methyl)-1H-1,2,3-triazol-4-yl)-N-(2-(dimethylamino)ethyl)-N-methylbenzamide]: more than 50 µM, 3759 fold and 13.3 nM.
The matching figures for `Fc1ccc(N2CCNCC2)cc1-c1cn(Cc2ccc(-c3nnc(C(F)F)o3)cc2)nn1` [Compound 4450, 2-(difluoromethyl)-5-(4-((4-(2-fluoro-5-(piperazin-1-yl)phenyl)-1H-1,2,3-triazol-1-yl)methyl)phenyl)-1,3,4-oxadiazole]: more than 50 µM, 2604 fold and 19.2 nM.
For `CN1CCN(c2ccc(F)c(-c3cn(Cc4ccc(-c5nnc(C(F)F)o5)cc4)nn3)c2)CC1` [Compound 4451, 2-(difluoromethyl)-5-(4-((4-(2-fluoro-5-(4-methylpiperazin-1-yl)phenyl)-1H-1,2,3-triazol-1-yl)methyl)phenyl)-1,3,4-oxadiazole], in assay [1], the IC50 was more than 50 µM. For the same molecule, in assay [2], the “HDAC6 selectivity (fold)” value was 1976 fold and the IC50 is 16.8 nM.
The corresponding values for `CCN1CCN(c2ccc(F)c(-c3cn(Cc4ccc(-c5nnc(C(F)F)o5)cc4)nn3)c2)CC1` [Compound 4452, 2-(difluoromethyl)-5-(4-((4-(5-(4-ethylpiperazin-1-yl)-2-fluorophenyl)-1H-1,2,3-triazol-1-yl)methyl)phenyl)-1,3,4-oxadiazole] are more than 50 µM, 2463 fold and 20.3 nM.
On to `CC(C)N1CCN(c2ccc(F)c(-c3cn(Cc4ccc(-c5nnc(C(F)F)o5)cc4)nn3)c2)CC1` [Compound 4453, 2-(difluoromethyl)-5-(4-((4-(2-fluoro-5-(4-isopropylpiperazin-1-yl)phenyl)-1H-1,2,3-triazol-1-yl)methyl)phenyl)-1,3,4-oxadiazole], for which the IC50 in assay [1] was more than 50 µM; in assay [2], 15.9 nM. The “HDAC6 selectivity (fold)” value in assay [2] was 3144 fold.
For `Fc1ccc(N2CCN(C3CCC3)CC2)cc1-c1cn(Cc2ccc(-c3nnc(C(F)F)o3)cc2)nn1` [Compound 4454, 2-(4-((4-(5-(4-cyclobutylpiperazin-1-yl)-2-fluorophenyl)-1H-1,2,3-triazol-1-yl)methyl)phenyl)-5-(difluoromethyl)-1,3,4-oxadiazol], the IC50 in assay [1] is more than 50 µM. For the same molecule, in assay [2], the “HDAC6 selectivity (fold)” value came out at 632 fold and the IC50 is 79.1 nM.
The corresponding values for `Fc1ccc(N2CCN(C3COC3)CC2)cc1-c1cn(Cc2ccc(-c3nnc(C(F)F)o3)cc2)nn1` [Compound 4455, 2-(difluoromethyl)-5-(4-((4-(2-fluoro-5-(4-(oxetan-3-yl)piperazin-1-yl)phenyl)-1H-1,2,3-triazol-1-yl)methyl)phenyl)-1,3,4-oxadiazole] are more than 50 µM, 520 fold and 96.1 nM.

The values above are taken from patent US20230257372A1 (CHONG KUN DANG PHARMACEUTICAL CORP., priority 2020, published 2023).
